From patent US20240122212A1 (SUNTORY HOLDINGS LIMITED, priority 2020, published 2024)
Read-outs that look alike come from different tables or passages of the source. Blank lines part the entries; values can stand above or below the molecule they belong to.

Key:
[1] = sucrose per unit concentration Brix 1 = 1, cited from earlier work
[2] = Basic taste quality sensory evaluation by trained panelists, spitting test, against 6% sucrose control (Example 1); type: in vivo, human; conditions: scale −3 to 3, 0 = no difference from 6% sucrose control; D-allulose 8.57 w/v %, D-arabinose 10 w/v % in pure water; 4 panelists
Protocol: In each evaluation item, the rating on a scale of −3 point to 3 point was performed, with the case where there is no difference from the control solution being 0. Quicker in sweetness onset, higher sweetness intensity, shorter lingering sweet aftertaste, lower bitterness intensity, and shorter lingering bitter aftertaste compared to the control were rated near 3 points. Slower in sweetness onset, lower sweetness intensity, longer lingering sweet aftertaste, higher bitterness intensity, and longer lingering bitter aftertaste compared to the control were rated near −3 points. That is, the closer to 0 point, the closer to the control. The evaluation was carried out by those (4 persons) who received sensory trainings as panelists by spitting test. The amount of a sweet substance contained in each sample solution was adjusted to be equal to the control solution on the calculation. […] The energy (kcal/100 ml) was calculated from the amount of the sweetener added.

[3] = target: T1, sweet taste receptor (T1R2/T1R3) (Homo sapiens, UniProt Q7RTX0+Q8TE23); assay: Sensory evaluation of sweetness intensity (VAS) in the co-presence of sweet taste receptor inhibitor lactisole (Example 5); type: in vivo; conditions: for Sweetness intensity residual ratio (%) with addition of 100 ppm lactisole: lactisole-free solution = 100%, sucrose 8 w/v %, sucralose 149 ppm, D- or L-arabinose 13.3 w/v %, VAS, average of n=3
T1 construct: endogenous in cells; host or cells: taste cells in the mouths of 3 trained human panelists (in vivo spitting test)
T1 sequence (Q8TE23 20-839): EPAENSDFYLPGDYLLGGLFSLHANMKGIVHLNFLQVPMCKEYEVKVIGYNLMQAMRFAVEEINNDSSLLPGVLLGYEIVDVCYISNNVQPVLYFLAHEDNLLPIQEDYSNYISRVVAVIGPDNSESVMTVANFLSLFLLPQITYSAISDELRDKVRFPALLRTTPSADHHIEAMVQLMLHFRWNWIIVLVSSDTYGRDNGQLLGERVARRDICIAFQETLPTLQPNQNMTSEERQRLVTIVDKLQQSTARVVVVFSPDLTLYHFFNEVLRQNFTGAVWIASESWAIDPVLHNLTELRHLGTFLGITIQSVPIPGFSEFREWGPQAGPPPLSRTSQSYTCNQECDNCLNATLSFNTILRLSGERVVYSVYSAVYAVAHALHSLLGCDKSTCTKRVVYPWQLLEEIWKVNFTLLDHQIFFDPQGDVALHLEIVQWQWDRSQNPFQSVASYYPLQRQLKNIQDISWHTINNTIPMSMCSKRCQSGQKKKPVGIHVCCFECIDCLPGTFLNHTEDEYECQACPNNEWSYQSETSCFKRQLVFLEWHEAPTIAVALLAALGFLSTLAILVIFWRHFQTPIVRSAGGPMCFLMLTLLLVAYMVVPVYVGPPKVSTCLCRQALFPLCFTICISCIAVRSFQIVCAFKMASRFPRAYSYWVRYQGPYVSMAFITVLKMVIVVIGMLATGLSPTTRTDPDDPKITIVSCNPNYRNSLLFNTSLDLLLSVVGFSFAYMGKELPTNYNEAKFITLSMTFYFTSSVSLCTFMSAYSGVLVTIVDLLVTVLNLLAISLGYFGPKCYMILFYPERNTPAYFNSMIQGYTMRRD
T1 sequence (Q7RTX0 21-852): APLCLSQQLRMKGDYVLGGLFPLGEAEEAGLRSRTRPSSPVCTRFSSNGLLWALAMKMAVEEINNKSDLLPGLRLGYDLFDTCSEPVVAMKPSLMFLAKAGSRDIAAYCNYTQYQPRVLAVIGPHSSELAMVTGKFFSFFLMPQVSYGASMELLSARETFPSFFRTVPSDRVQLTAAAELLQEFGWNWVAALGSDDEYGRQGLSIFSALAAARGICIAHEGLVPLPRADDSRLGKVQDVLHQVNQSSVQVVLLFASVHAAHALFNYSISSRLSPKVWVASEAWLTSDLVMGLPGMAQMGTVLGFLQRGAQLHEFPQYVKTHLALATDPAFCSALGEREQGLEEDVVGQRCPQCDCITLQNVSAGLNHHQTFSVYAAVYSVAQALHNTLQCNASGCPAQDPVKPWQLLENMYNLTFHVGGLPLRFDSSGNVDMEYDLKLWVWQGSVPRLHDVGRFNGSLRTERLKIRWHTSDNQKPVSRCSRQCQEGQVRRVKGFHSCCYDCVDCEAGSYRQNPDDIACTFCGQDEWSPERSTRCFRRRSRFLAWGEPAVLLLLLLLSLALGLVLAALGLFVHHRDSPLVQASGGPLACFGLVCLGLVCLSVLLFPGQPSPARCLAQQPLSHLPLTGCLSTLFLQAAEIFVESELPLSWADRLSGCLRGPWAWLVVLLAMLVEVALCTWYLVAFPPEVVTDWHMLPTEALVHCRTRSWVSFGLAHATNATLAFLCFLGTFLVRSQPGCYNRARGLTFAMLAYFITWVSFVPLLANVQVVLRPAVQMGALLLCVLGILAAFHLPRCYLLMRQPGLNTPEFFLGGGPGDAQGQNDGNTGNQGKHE
Source text: Whether or not a certain sweet substance can trigger a sweetness response even if a sweetness response through the sweet taste receptor T1R2/T1R3 is inhibited may be determined by, for instance, measuring, by sensory evaluation or cell assay, the sweetness intensity of a solution (control solution), in which only the above sweet substance has been dissolved, and the sweetness intensity (remaining sweetness intensity) of a solution (test solution), in which a sweet taste receptor T1R2/T1R3 inhibitor (e.g., lactisole, gymnemic acid) is added for inhibiting a sweetness response through the sweet taste receptor T1R2/T1R3 to the control solution; and by comparing the sweetness intensity of the control solution and the sweetness intensity of the test solution.
The evaluation was carried out by those (3 persons) who received sensory trainings as panelists. […] Additionally, solutions having the same composition as sample solutions 1, 2, 3, and 4 except that lactisole was not added were used as control solutions 1, 2, 3, and 4. The sensory evaluation was carried out by spitting test. The sweetness intensity was rated by the VAS scale and calculated with the intensity of a solution to which lactisole was not added being 100% and the sweetness intensity of a solution to which lactisole was added as a relative value (%). The sweetness inhibitory effect by lactisole was verified by this.

[4] = Degree of sweetness relative to sucrose; conditions: value used to design the sample solutions of Example 5
Source text: The “sweetness intensity” means an intensity of sweetness of a substance. […] A numerical value obtained by multiplying the degree of sweetness by a concentration Brix value of glucose is the sweetness intensity of glucose in terms of sucrose. Thus, when a concentration of glucose in terms of sucrose is Brix 1.5, the sweetness intensity of glucose is 0.65×1.5=0.975. The sweetness intensity of a sweetener in terms of sucrose can be calculated from a degree of sweetness shown in the following table or a value of a known degree of sweetness.
For example, when the sweetness intensity of sucrose per unit concentration Brix 1 is defined as a degree of sweetness of 1, a degree of sweetness of rebaudioside D is about 200 to 250 (median value 225), a degree of sweetness of rebaudioside M is about 200 to 260 (median value 230), a degree of sweetness of rebaudioside B is about 325, a degree of sweetness of rebaudioside A is about 200 to 300 (median value 250), a degree of sweetness of rebaudioside N is about 200 to 250 (median value 225), a degree of sweetness of rebaudioside O is about 200 to 250 (median value 225), a degree of sweetness of rebaudioside E is about 70 to 80 (median value 75), a degree of sweetness of a Luo han guo extract (containing 40% of Mog V) is about 110 to 150 (median value 130), a degree of sweetness of mogroside V is about 240 to 300 (median value 270), and a degree of sweetness of thaumatin is about 2,000, and a degree of sweetness of brazzein is about 500 to 2,000 (median value 1,250). The numerical value obtained by multiplying these degrees of sweetness by a concentration (w/v % (considered to be the same as w/w % in the case of a beverage)) of the high-intensity sweetener in a fruit juice beverage is a sweetness intensity of the high-intensity sweetener. The relative ratio in degrees of sweetness of various sweeteners to the degree of sweetness of 1 of sucrose can be determined from a known sugar sweetness conversion table, and the like. In the present description, when a degree of sweetness is shown in a numerical value range, the median value may be used. However, a sweetener having different values in a degree of sweetness by literatures, a relative ratio in a degree of sweetness to the degree of sweetness of 1 of sucrose can be defined by a sensory test. Examples of such a sensory test include a method in which samples were prepared by adding sucrose having a sweetness intensity of Brix 3.0 to 5.0 in 0.5 increments to pure water, and of which a sucrose-added sample having a sweetness intensity equal to an aqueous solution of a sweetener in a predetermined concentration is selected.
Additionally, for a sweetener with a variable degree of sweetness as a sweetness intensity increases, degrees of sweetness in different concentrations are actually measured and plotted whereby a degree of sweetness in a predetermined concentration may be calculated from the obtained approximate curve.

Molecule: O=C(CO)[C@@H](O)[C@@H](O)[C@H](O)CO [Tagatose]
Degree of sweetness ([1]; Table 1): 0.9

Sweetness intensity residual ratio (%) with addition of 100 ppm lactisole [3]: 29.05%
Molecule: OC[C@H]1O[C@@](CO)(O[C@H]2O[C@H](CO)[C@@H](O)[C@H](O)[C@H]2O)[C@@H](O)[C@@H]1O [Sucrose]
Bitterness intensity [2]: 0 point
Lingering bitter aftertaste [2]: 0 point
Lingering sweet aftertaste [2]: 0 point
Quickness in sweetness onset [2]: 0 point
Sweetness intensity [2]: 0 point
Degree of sweetness ([1]; Table 1): 1

Molecule: rebaudioside B
Degree of sweetness ([1]; high-intensity sweeteners): about 325

Molecule: OC[C@H]1O[C@H](O[C@H]2[C@H](O)[C@@H](O)[C@H](O)O[C@@H]2CO)[C@H](O)[C@@H](O)[C@@H]1O [Maltose]
Degree of sweetness ([1]; Table 1): 0.4

Molecule: O=C[C@H](O)[C@H](O)[C@H](O)[C@H](O)CO [Allose]
Degree of sweetness ([1]; Table 1): 0.8

remaining sweetness intensity when 100 ppm of lactisole was added, compared with sucrose ([3]; 100 ppm lactisole): equal to or more than that of sucrose
Sweetness intensity residual ratio (%) with addition of 100 ppm lactisole [3]: 34.43%
Molecule: O=C[C@H](O)[C@@H](O)[C@@H](O)CO [L-Arabinose]
sweetness intensity, times as much as that of sucrose [4]: 0.6 times

Molecule: thaumatin
Degree of sweetness ([1]; high-intensity sweeteners): about 2,000

Sweetness intensity residual ratio (%) with addition of 100 ppm lactisole [3]: 8.99%
Molecule: OC[C@H]1O[C@H](O[C@]2(CCl)O[C@H](CCl)[C@@H](O)[C@@H]2O)[C@H](O)[C@@H](O)[C@H]1Cl [Sucralose]
sweetness intensity, times as much as that of sucrose [4]: 538.54 times
